Experimental data taken from patent US20030166663A1, “Use” (priority 2001, published 2003).
Several values for one entry are separate records, joined by “and”; a condition that tells them apart may be missing. Identical values can stand only once. Like-named read-outs stand apart in the source and are kept apart here.

Key:
ob/ob mice = assay: Effect of compounds on food intake in ob/ob mice (15 h food consumption, s.c. minipump infusion); format: in vivo, mouse; settings: for Food intake, % of basal level, Mean: 15 h food consumption; for Inhibition (%) Based on basal (food intake): relative to vehicle
Method: Obese (ob/ob) mouse is selected as the primary animal model for screening as this mutant mouse consumes high amounts of food resulting in a high signal to noise ratio. To further substantiate and compare efficacy data, the effect of the compounds on food consumption is also studied in wild type (C57BL/6J) mice. The amount of food consumed during 15 hours of infusion of compounds is recorded.
Male mice (obese C57BL/6JBom-Lep^ob and lean wild-type C57B1/6JBom; Bomholtsgaard, Denmark) 8-9 weeks with an average body weight of 50 g (obese) and 25 g (lean) are used in all the studies. The animals are housed singly in cages at 23±1° C., 40-60 % humidity and have free access to water and standard laboratory chow. The 12/12-h light/dark cycle is set to lights off at 5 p.m. The animals are conditioned for at least one week before start of study.
The test compounds are dissolved in solvents suitable for each specific compound such as cyclodextrin, cyclodextrin/methane sulfonic acid, polyethylene glycol/methane sulfonic acid, or saline. Fresh solutions are made for each study. […] The purity of the test compounds is of analytical grade.
(§1) The animals are weighed at the start of the study and randomized based on body weight. Alzet osmotic minipumps (Model 2001D; infusion rate 8 μl/h) are used and loaded essentially as recommended by the Alzet technical information manual (Alza Scientific Products, 1997; Teeuwes and Yam, 1976). Continuous subcutaneous infusion with 24 hours duration is used. The minipumps are either filled with different concentrations of test compounds dissolved in vehicle or with only vehicle solution and maintained in vehicle pre-warmed to 37° C. (approx. 1 h). The minipumps are implanted subcutaneously in the neck/back region under short acting anesthesia (metofane/enflurane). This surgical procedure lasts approximately 5 min. It takes about 3 h to reach steady state delivery of the compound.
(§2) The weights of the food pellets are measured at 5 p.m. and at […]. for two days before (baseline) and one day after the implantation of the osmotic minipumps. The weighing is performed with a computer assisted Mettler Toledo PR 5002 balance. Occasional spillage is corrected for. At the end of the study the animals are killed by neck dislocation and trunk blood sampled for later analysis of plasma drug concentrations.
Food consumption for 15 hours is measured for the three consecutive days and the percentage of basal level values is derived for each animal from the day before and after treatment. The values are expressed as mean±SD and mean±SEM from eight animals per dose group. Statistical evaluation is performed by Kruskal-Wallis one-way ANOVA using the per cent basal values. If statistical significance is reached at the level of p<0.05, Mann-Whitney U-test for statistical comparison between control and treatment groups is performed.

[1] = Determination of plasma concentration at steady state (Css, tot) in ob/ob mice; format: in vivo, mouse; settings: continuous s.c. infusion, read-out: Css, tot (total plasma exposure at steady state)
Method: as §1, §2
The plasma sample proteins are precipitated with methanol, centrifuged, and the supernatant is transferred to HPLC vials and injected into the liquid chromatography/mass spectrometric system. The mass spectrometer is set for electrospray positive ion mode and Multiple Reaction Monitoring.
A linear regression analysis of the standards forced through the origin is used to calculate the concentrations of the unknown samples.

[2] = nominal 10 mg/kg/day s.c. infusion
[3] = nominal 30 mg/kg/day s.c. infusion
[4] = nominal 100 mg/kg/day s.c. infusion
[5] = mouse, plasma, subcutaneous, nominal 10 mg/kg/day
[6] = mouse, plasma, subcutaneous, nominal 30 mg/kg/day
[7] = mouse, plasma, subcutaneous, nominal 100 mg/kg/day

Structure (SMILES) | Food intake, % of basal level, Mean (ob/ob mice; [2]) | Inhibition (%) Based on basal (food intake) (ob/ob mice; [2]) | concentration at 24 h ([1]; nominal 10 mg/kg/day) | Food intake, % of basal level, Mean (ob/ob mice; [3]) | Food intake, % of basal level, Mean (ob/ob mice; [4]) | Inhibition (%) Based on basal (food intake) (ob/ob mice; [3]) [%] | Inhibition (%) Based on basal (food intake) (ob/ob mice; nominal 30 mg/kg/day s.c. infusion, listed as 4-n-Butyl-N-(4-piperazin-1-yl-quinolin-6-yl)benzenesulfonamide) [%] | Inhibition (%) Based on basal (food intake) (ob/ob mice; [4]) [%] | Inhibition (%) Based on basal (food intake) (ob/ob mice; nominal 100 mg/kg/day s.c. infusion, listed as 4-n-Butyl-N-(4-piperazin-1-yl-quinolin-6-yl)benzenesulfonamide) [%] | concentration at 24 h [1, 5] [nM] | concentration at 24 h [1, 6] [nM] | concentration at 24 h [1, 7] [nM] | Inhibition (%) Based on basal (food intake) (ob/ob mice; nominal 30 mg/kg/day s.c. infusion, listed as 5-Chloro-3-methyl-benzo[b]thiophene-2-sulfonic acid (4-[4-methylpiperazin-1-yl]q) [%] | Inhibition (%) Based on basal (food intake) (ob/ob mice; nominal 100 mg/kg/day s.c. infusion, listed as 5-Chloro-3-methyl-benzo[b]thiophene-2-sulfonic acid (4-[4-methylpiperazin-1-yl]q) [%]
Clc1cccc(N2CCNCC2)c1 [mCCP, m-chlorophenylpiperazine, reference compound] | 31.2 % of basal level and 39.4 % of basal level | 52.5% and 39.6% | 610 nM and 780 nM |  |  |  |  |  |  |  |  |  |  | 
CCCCc1ccc(S(=O)(=O)Nc2ccc3nccc(N4CCNCC4)c3c2)cc1 [EXAMPLE 2, 4-n-butyl-N-(4-piperazin-1-yl-quinolin-6-yl)benzenesulphonamide] | 61.0 % of basal level | 6.5% |  | 45.5 % of basal level | 43.6 % of basal level | 30.2 | 30 | 33.2 | 33 | 370 | 940 | 1290 |  | 
Cc1c(S(=O)(=O)Nc2ccc3nccc(N4CCN(C)CC4)c3c2)sc2ccc(Cl)cc12 [EXAMPLE 1, 5-chloro-3-methyl-benzo[b]thiophene-2-sulphonic acid (4-[4-methylpiperazin-1-yl]quinolin-6-yl)amide] | 62.5 % of basal level | 4.9% |  | 49.3 % of basal level | 49.9 % of basal level | 25.0 |  | 24.1 |  | 1000 | 1620 | 1810 | 25 | 24
